Tests used:
[1] = target: T1, hRIPK1 (aa 1-375) fusion protein (Homo sapiens, UniProt Q13546); assay: ADP-Glo kinase assay: catalytic activity of RIPK1 (autophosphorylation, conversion of ATP to ADP); assay type: biochemical
T1 construct: hRIPK1 (aa 1-375) fusion protein
T1 sequence (Q13546 1-375): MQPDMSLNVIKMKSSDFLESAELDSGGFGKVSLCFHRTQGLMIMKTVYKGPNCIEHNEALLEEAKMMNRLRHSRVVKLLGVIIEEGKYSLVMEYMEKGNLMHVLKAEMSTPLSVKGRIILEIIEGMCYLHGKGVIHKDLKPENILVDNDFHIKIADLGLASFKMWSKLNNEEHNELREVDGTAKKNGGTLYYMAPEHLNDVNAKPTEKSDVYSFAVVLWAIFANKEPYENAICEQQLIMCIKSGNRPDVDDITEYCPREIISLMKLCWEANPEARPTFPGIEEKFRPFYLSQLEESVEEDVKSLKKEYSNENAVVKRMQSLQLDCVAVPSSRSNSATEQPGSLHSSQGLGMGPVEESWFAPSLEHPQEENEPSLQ
Procedure, shortened: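 hRIPK1 (aa 1-375) fusion protein (3.6 μg/ml final) was preincubated 30 min at rt with compound (33300-1.69 nM, 1% DMSO), then 50 μM ATP was added for 240 min at rt. ADP from autophosphorylation was measured by ADP-Glo luminescence and curves fitted by nonlinear regression.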

U937 cells = assay: Cellular assay in U937 cells: activity of RIPK1 inhibitors on TNFα/zVAD.fmk-induced cell death (necroptosis), CellTiter 96 AQueous (MTS) readout; assay type: cell-based; conditions: Homo sapiens, U-937
Procedure, shortened: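 Necroptosis was measured by viable-cell MTS reduction (4 h, absorbance 490 nm) after overnight (18–24 h) 37° C culture. Cell suspensions of U937 cells carried TNFα (100 ng/ml) plus zVAD.fmk (50 μM) before compound was added. A 10-point curve (10 μM–0.26 nM or 1 μM–0.07 nM) was run in duplicate, normalised to the control lacking TNFα/zVAD.fmk.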

Row | IC50 [1] | Compound | IC50 (U937 cells)
1 | 22 nM | N#Cc1cc(F)cc([C@@H]2CCON2C(=O)[C@H]2CC[C@H](Cc3cncnc3)CC2)c1 [compound 247, trans-3-fluoro-5-[(3S)-2-[4-(pyrimidin-5-ylmethyl)cyclohexanecarbonyl]isoxazolidin-3-yl]benzonitrile] | 136 nM
2 | 73 nM | O=C([C@H]1CC[C@H](Cc2cncnc2)CC1)N1OCC[C@H]1c1cnccn1 [compound 248, trans-[(3S)-3-pyrazin-2-ylisoxazolidin-2-yl]-[4-(pyrimidin-5-ylmethyl)cyclohexyl]methanone] | 666 nM
3 | 18 nM | Cc1cc(C[C@H]2CC[C@H](C(=O)N3OCC[C@H]3c3cc(F)cc(C#N)c3)CC2)cn2ncnc12 [compound 249, trans-3-fluoro-5-[(3S)-2-[4-[(8-methyl-[1,2,4]triazolo[1,5-a]pyridin-6-yl)methyl]cyclohexanecarbonyl]-1,2-oxazolidin-3-yl]benzonitrile] | 5 nM
4 | 16 nM | Cc1cc(C[C@H]2CC[C@H](C(=O)N3OCC[C@H]3c3cnccn3)CC2)cn2ncnc12 [compound 250, trans-[4-[(8-methyl-[1,2,4]triazolo[1,5-a]pyridin-6-yl)methyl]cyclohexyl]-[(3S)-3-pyrazin-2-yl-1,2-oxazolidin-2-yl]methanone] | 17 nM
5 | 8 nM | NC(=O)c1ccc2c(ccn2C[C@H]2CC[C@H](C(=O)N3OCC[C@H]3c3cnccn3)CC2)c1 [compound 251, trans-1-[[4-[(3S)-3-pyrazin-2-ylisoxazolidine-2-carbonyl]cyclohexyl]methyl]indole-5-carboxamide] | 17 nM
6 | 17 nM | N#Cc1cncc([C@@H]2CCON2C(=O)[C@H]2CC[C@H](Cn3ccc4cc(C(N)=O)ccc43)CC2)c1 [compound 252, trans-1-[[4-[(3S)-3-(5-cyano-3-pyridyl)isoxazolidine-2-carbonyl]cyclohexyl]methyl]indole-5-carboxamide] | 54 nM
7 | 18 nM | COc1cncc([C@@H]2CCON2C(=O)[C@H]2CC[C@H](Cn3ccc4cc(C(N)=O)ccc43)CC2)n1 [compound 253, trans-1-[[4-[(3S)-3-(6-methoxypyrazin-2-yl)isoxazolidine-2-carbonyl]cyclohexyl]methyl]indole-5-carboxamide] | 175 nM
8 | 20 nM | Cc1nc([C@@H]2CCON2C(=O)[C@H]2CC[C@H](Cn3ccc4cc(C(N)=O)ccc43)CC2)cs1 [compound 254, trans-1-[[4-[(3S)-3-(2-methylthiazol-4-yl)isoxazolidine-2-carbonyl]cyclohexyl]methyl]indole-5-carboxamide] | 96 nM
9 | 25 nM | NC(=O)c1ccc2c(ccn2C[C@H]2CC[C@H](C(=O)N3OCC[C@H]3c3ccccn3)CC2)c1 [compound 255, trans-1-[[4-[(3S)-3-(2-pyridyl)isoxazolidine-2-carbonyl]cyclohexyl]methyl]indole-5-carboxamide] | 521 nM
10 | 10 nM | N#Cc1cncc([C@@H]2CCON2C(=O)[C@H]2CC[C@H](Cc3cc(F)cc(CO)c3)CC2)c1 [compound 257, trans-5-[(3S)-2-[4-[[3-fluoro-5-(hydroxymethyl)phenyl]methyl]cyclohexanecarbonyl]isoxazolidin-3-yl]pyridine-3-carbonitrile] | 2 nM
11 | 8 nM | O=C([C@H]1CC[C@H](Cc2cc(F)cc(CO)c2)CC1)N1OCC[C@H]1c1cnccn1 [compound 259, trans-[4-[[3-fluoro-5-(hydroxymethyl)phenyl]methyl]cyclohexyl]-[(3S)-3-pyrazin-2-ylisoxazolidin-2-yl]methanone] | 2 nM
12 | 32 nM | Cc1nc2ccc(C[C@H]3CC[C@H](C(=O)N4OCC[C@H]4c4ccc(F)cc4)CC3)cn2n1 [compound 260, trans-[(3S)-3-(4-fluorophenyl)isoxazolidin-2-yl]-[4-[(2-methyl-[1,2,4]triazolo[1,5-a]pyridin-6-yl)methyl]cyclohexyl]methanone] | 25 nM
13 | 23 nM | Cc1nc2ccc(C[C@H]3CC[C@H](C(=O)N4OCC[C@H]4c4ccc(F)c(F)c4)CC3)cn2n1 [compound 261, trans-[(3S)-3-(3,4-difluorophenyl)isoxazolidin-2-yl]-[4-[(2-methyl-[1,2,4]triazolo[1,5-a]pyridin-6-yl)methyl]cyclohexyl]methanone] | 17 nM
14 | 34 nM | Cc1nc2ccc(C[C@H]3CC[C@H](C(=O)N4OCC[C@H]4c4cncc(C#N)c4)CC3)cn2n1 [compound 262, trans-5-[(3S)-2-[4-[(2-methyl-[1,2,4]triazolo[1,5-a]pyridin-6-yl)methyl]cyclohexanecarbonyl]isoxazolidin-3-yl]pyridine-3-carbonitrile] | 67 nM
15 | 41 nM | Cc1ncc(C[C@H]2CC[C@H](C(=O)N3OCC[C@H]3c3cc(F)cc(C#N)c3)CC2)cn1 [compound 263, trans-3-fluoro-5-[(3S)-2-[4-[(2-methylpyrimidin-5-yl)methyl]cyclohexanecarbonyl]isoxazolidin-3-yl]benzonitrile] | 59 nM
16 | 14 nM | Cc1ncc(C[C@H]2CC[C@H](C(=O)N3OCC[C@H]3c3cc(F)cc(F)c3)CC2)cn1 [compound 264, trans-[(3S)-3-(3,5-difluorophenyl)isoxazolidin-2-yl]-[4-[(2-methylpyrimidin-5-yl)methyl]cyclohexyl]methanone] | 16 nM
17 | 8 nM | O=C([C@H]1CC[C@H](Cc2ccc(CO)c(F)c2)CC1)N1OCC[C@H]1c1cc(F)cc(F)c1 [compound 265, trans-[(3S)-3-(3,5-difluorophenyl)isoxazolidin-2-yl]-[4-[[3-fluoro-4-(hydroxymethyl)phenyl]methyl]cyclohexyl]methanone] | 1 nM
18 | 13 nM | N#Cc1cc(F)cc([C@@H]2CCON2C(=O)[C@H]2CC[C@H](Cc3ccc(CO)c(F)c3)CC2)c1 [compound 266, trans-3-fluoro-5-[(3S)-2-[4-[[3-fluoro-4-(hydroxymethyl)phenyl]methyl]cyclohexanecarbonyl]isoxazolidin-3-yl]benzonitrile] | 1 nM
19 | 12 nM | Cc1ncc(C[C@H]2CC[C@H](C(=O)N3OCC[C@H]3c3cc(F)cc(F)c3)CC2)cc1C#N [compound 267, trans-5-[[4-[(3S)-3-(3,5-difluorophenyl)isoxazolidine-2-carbonyl]cyclohexyl]methyl]-2-methyl-pyridine-3-carbonitrile] | 2 nM
20 | 12 nM | Cc1ncc(C[C@H]2CC[C@H](C(=O)N3OCC[C@H]3c3cc(F)cc(C#N)c3)CC2)cc1C#N [compound 268, trans-5-[[4-[(3S)-3-(3-cyano-5-fluoro-phenyl)isoxazolidine-2-carbonyl]cyclohexyl]methyl]-2-methyl-pyridine-3-carbonitrile] | 5 nM
21 | 13 nM | Cc1ccc(CC23CCC(C(=O)N4OCC[C@H]4c4cc(F)cc(F)c4)(CC2)C3)cc1C(N)=O [compound 269, 5-[[4-[(3S)-3-(3,5-difluorophenyl)isoxazolidine-2-carbonyl]norbornan-1-yl]methyl]-2-methyl-benzamide] | 28 nM
